Patent US8618299B2, “Azinone-substituted azapolycycle MCH-1 antagonists, methods of making, and use thereof” (Albany Molecular Research, Inc., priority 2009, dated 2013)
Structures can show the parent of a compound that is named as a salt.

Columns and labels:
human MCH-1 receptor = human MCH-1 receptor (Homo sapiens (Human), UniProt Q99705); assay: Binding assay for human melanin-concentrating hormone (MCH1) receptor; conditions: membranes from CHO-K1 cells expressing human MCH1 receptor, 1.4 nM [3H]-labeled radioligand, 60 min at 25° C., pH 7.4, Ki from Cheng Prusoff equation
Method: Binding Assay for Human Melanin-Concentrating Hormone (MCH1) Receptor
Evaluation of the affinity of compounds for the human MCH-1 receptor was accomplished using 4-(3,4,5-tritritiumbenzyloxy)-1-(1-(2-(pyrrolidin-1-yl)ethyl)-1H-indazol-5-yl)pyridin-2(1H)-one and membranes prepared from stable CHO-K1 cells expressing the human MCH1 receptor obtained from Euroscreen (Batch 1138). Cell membrane homogenates (8.92 μg protein) were incubated for 60 min at 25° C. with 1.4 nM of the [^3H]-labeled compound in the absence or presence of the test compound in 50 mM Tris-HCl buffer, pH 7.4. Nonspecific binding was determined in the presence of 50 μM 1-(5-(4-cyanophenyl)bicyclo[3.1.0]hexan-2-yl)-3-(4-fluoro-3-(trifluoromethyl)phenyl)-1-(3-(4-methylpiperazin-1-yl)propyl)urea. Following incubation, the samples were filtered rapidly under vacuum through Skatron 11731 filters, pre-soaked in 0.5% polyethylenimine, and washed with ice-cold 50 mM Tris-HCl buffer, pH 7.4, (wash setting 9,9,0) using a Skatron cell harvester. The filters were counted for radioactivity in a liquid scintillation counter (Tri-Carb 2100TR, Packard) using a scintillation cocktail (Ultima Gold MV, Perkin Elmer).
The results are expressed as a percent inhibition of the control radioligand specific binding. The IC50 value (concentration causing a half-maximal inhibition of control specific binding) and Hill coefficient (nH) were determined by non-linear regression analysis of the competition curve using Hill equation curve fitting. The inhibition constant (Ki) was calculated from the Cheng Prusoff equation: (Ki=IC50/(1+(L/KD)), where L=concentration of radioligand in the assay, and KD=affinity of the radioligand for the receptor.

human MCH-1 receptor, sequence (Q99705 whole entry): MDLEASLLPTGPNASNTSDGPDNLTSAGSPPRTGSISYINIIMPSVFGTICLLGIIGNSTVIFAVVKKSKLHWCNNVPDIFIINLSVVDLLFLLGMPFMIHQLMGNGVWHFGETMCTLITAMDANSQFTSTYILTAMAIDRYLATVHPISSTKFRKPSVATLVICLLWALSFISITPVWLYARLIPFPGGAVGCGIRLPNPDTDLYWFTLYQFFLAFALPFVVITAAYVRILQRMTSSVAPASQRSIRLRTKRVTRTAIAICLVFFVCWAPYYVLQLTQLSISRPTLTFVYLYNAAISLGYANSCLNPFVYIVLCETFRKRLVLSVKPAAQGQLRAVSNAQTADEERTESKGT

melting point | SMILES | further results
290 to 293 °C | Cn1c2c(c3ccc(-n4ccc(OCc5ccc(F)cn5)cc4=O)cc31)CN1CCCC1C2 (centres unmarked) (as salt: hydrochloride) [Example 12, 4-((5-Fluoropyridin-2-yl)methoxy)-1-(10-methyl-2,3,5,10,11,11a-hexahydro-1H-indolizino[7,6-b]indol-8-yl)pyridin-2(1H)-one Hydrochloride] | 
305 °C (dec.) | Cc1ccc(-c2ccn(-c3ccc4c5c(n(C)c4c3)CC3CCCN3C5)c(=O)c2)cn1 (centres unmarked) (as salt: hydrochloride) [Example 13, 1-(10-Methyl-2,3,5,10,11,11a-hexahydro-1H-indolizino[7,6-b]indol-8-yl)-4-(6-methylpyridin-3-yl)pyridin-2(1H)-one Hydrochloride] | 
280 to 283 °C | Cc1ccc(-c2ccn(-c3ccc4c5c(n(C)c4c3)CCN3CCCC53)c(=O)c2)cn1 (centres unmarked) (as salt: hydrochloride) [Example 15, 1-(7-Methyl-2,3,5,6,7,11c-hexahydro-1H-indolizino[7,8-b]indol-9-yl)-4-(6-methylpyridin-3-yl)pyridin-2(1H)-one Hydrochloride] | 
256 to 258 °C | Cn1c2c(c3ccc(-n4ccc(OCc5ccc(F)cn5)cc4=O)cc31)C1CCCCN1CC2 (centres unmarked) (as salt: hydrochloride) [Example 21, 4-((5-Fluoropyridin-2-yl)methoxy)-1-(8-methyl-1,2,3,4,6,7,8,12c-octahydroindolo[3,2-a]quinolizin-10-yl)pyridin-2(1H)-one Hydrochloride] | 
210 to 214 °C | Cc1ccc(COc2ccn(-c3ccc4c5c(n(C)c4c3)CCN3CCCCC53)c(=O)c2)cn1 (centres unmarked) (as salt: hydrochloride) [Example 23, 1-(8-Methyl-1,2,3,4,6,7,8,12c-octahydroindolo[3,2-a]quinolizin-10-yl)-4-((6-methylpyridin-3-yl)methoxy)pyridin-2(1H)-one Dihydrochloride] | 
260 to 263 °C | Cc1ccc(COc2ccn(-c3ccc4c5c(n(C)c4c3)CC3CCCN3C5)c(=O)c2)cn1 (centres unmarked) (as salt: hydrochloride) [Example 31, 1-(10-Methyl-2,3,5,10,11,11a-hexahydro-1H-indolizino[7,6-b]indol-8-yl)-4-((6-methylpyridin-3-yl)methoxy)pyridin-2(1H)-one Hydrochloride] | 
256 to 260 °C | Cc1ccc(-c2ccn(-c3ccc4c5c(n(C)c4c3)CC3CCCCN3C5)c(=O)c2)cn1 (centres unmarked) (as salt: hydrochloride) [Example 35, 1-(5-Methyl-5,6,6a,7,8,9,10,12-octahydroindolo[2,3-b]quinolizin-3-yl)-4-(6-methylpyridin-3-yl)pyridin-2(1H)-one Dihydrochloride] | 
235 to 238 °C | Cn1c2c(c3ccc(-n4ccc(OCc5ccc(F)cn5)cc4=O)cc31)CN1CCCCC1C2 (centres unmarked) (as salt: hydrochloride) [Example 37, 4-((5-Fluoropyridin-2-yl)methoxy)-1-(5-methyl-5,6,6a,7,8,9,10,12-octahydroindolo[2,3-b]quinolizin-3-yl)pyridin-2(1H)-one Dihydrochloride] | 
227 to 230 °C | Cl.Cn1c2c(c3ccc(-n4ccc(OCc5ccccc5)cc4=O)cc31)CCN1CCCC21 (single isomer, unassigned; (+)) [Example 4, (+)4-(Benzyloxy)-1-(11-methyl-2,3,5,6,11,11b-hexahydro-1H-indolizino[8,7-b]indol-9-yl)pyridin-2(1H)-one Hydrochloride] | Ki (human MCH-1 receptor; Hydrochloride): 12.3 nM
224 to 228 °C | Cl.Cn1c2c(c3ccc(-n4ccc(OCc5ccccc5)cc4=O)cc31)CCN1CCCC21 (single isomer, unassigned; (-)) [Example 3, (−)4-(Benzyloxy)-1-(11-methyl-2,3,5,6,11,11b-hexahydro-1H-indolizino[8,7-b]indol-9-yl)pyridin-2(1H)-one Hydrochloride] | Ki (human MCH-1 receptor; Hydrochloride): 17.3 nM
270 to 280 °C | Cl.Cn1c2c(c3ccc(-n4ccc(OCc5ccc(F)cn5)cc4=O)cc31)CN1CCCCC1C2 (single isomer, unassigned; (-)) [Example 38, (−)-4-((5-Fluoropyridin-2-yl)methoxy)-1-(5-methyl-5,6,6a,7,8,9,10,12-octahydroindolo[2,3-b]quinolizin-3-yl)pyridin-2(1H)-one Hydrochloride] | Ki (human MCH-1 receptor; Hydrochloride): 19 nM
167 to 170 °C | Cl.Cn1c2c(c3ccc(-n4ccc(OCc5ccccc5)cc4=O)cc31)CCN1CCCC21 (centres unmarked) [Example 2, 4-(Benzyloxy)-1-(11-methyl-2,3,5,6,11,11b-hexahydro-1H-indolizino[8,7-b]indol-9-yl)pyridin-2(1H)-one Hydrochloride] | Ki (human MCH-1 receptor; Hydrochloride): 14.9 nM
210 to 213 °C | Cl.Cn1c2c(c3ccc(-n4ccc(OCc5ccccc5)cc4=O)cc31)CCN1CCCCC21 (centres unmarked) [Example 5, 4-(Benzyloxy)-1-(12-methyl-1,2,3,4,6,7,12,12b-octahydroindolo[2,3-a]quinolizin-10-yl)pyridin-2(1H)-one Hydrochloride] | Ki (human MCH-1 receptor): 31 nM
280 to 284 °C | Cl.Cn1c2c(c3ccc(-n4ccc(-c5ccc(C(F)(F)F)cn5)cc4=O)cc31)CCN1CCCCC21 (centres unmarked) [Example 6, 1-(12-Methyl-1,2,3,4,6,7,12,12b-octahydroindolo[2,3-a]quinolizin-10-yl)-4-(5-(trifluoromethyl)pyridin-2-yl)pyridin-2(1H)-one Hydrochloride] | Ki (human MCH-1 receptor): 481 nM
 | Cn1c2c(c3ccc(-n4ccc(OCc5ccc(F)cn5)cc4=O)cc31)CN1CCCCC1C2 (centres unmarked) [Example 37, 4-((5-Fluoropyridin-2-yl)methoxy)-1-(5-methyl-5,6,6a,7,8,9,10,12-octahydroindolo[2,3-b]quinolizin-3-yl)pyridin-2(1H)-one Dihydrochloride] | Ki (human MCH-1 receptor; Dihydrochloride): 10 nM
 | O=c1cc(OCc2ccc(F)cn2)ccn1-c1ccc2c3c([nH]c2c1)CC1CCCN1C3 (centres unmarked) [Example 40, 4-((5-Fluoropyridin-2-yl)methoxy)-1-(2,3,5,10,11,11a-hexahydro-1H-indolizino[7,6-b]indol-8-yl)pyridin-2(1H)-one Hydrochloride] | Ki (human MCH-1 receptor): 14 nM
 | O=c1cc(OCc2ccc(Cl)cc2F)ccn1-c1ccc2c3c([nH]c2c1)CC1CCCN1C3 (centres unmarked) [Example 42, 4-(4-Chloro-2-fluorobenzyloxy)-1-(2,3,5,10,11,11a-hexahydro-1H-indolizino[7,6-b]indol-8-yl)pyridin-2(1H)-one Hydrochloride] | Ki (human MCH-1 receptor): 19 nM
 | Cn1c2c(c3ccc(-n4ccc(OCc5ccc(F)cn5)cc4=O)cc31)CCN1CCCC21 (centres unmarked) [Example 43, 4-((5-Fluoropyridin-2-yl)methoxy)-1-(11-methyl-2,3,5,6,11,11b-hexahydro-1H-indolizino[8,7-b]indol-9-yl)pyridin-2(1H)-one Dihydrochloride] | Ki (human MCH-1 receptor): 26 nM
 | Cn1c2c(c3ccc(-n4ccc(OCc5ccc(F)cn5)cc4=O)nc31)C1CCCN1CC2 (centres unmarked) [Example 45, 4-((5-Fluoropyridin-2-yl)methoxy)-1-(7-methyl-2,3,5,6,7,11c-hexahydro-1H-pyrido[3′,2′:4,5]pyrrolo[2,3-g]indolizin-9-yl)pyridin-2(1H)-one Hydrochloride] | Ki (human MCH-1 receptor): 21 nM

SMILES | melting point | further results
Cn1c2c(c3ccc(-n4ccc(OCc5ccc(F)cn5)cc4=O)cc31)C1CCCN1CC2 (centres unmarked) (as salt: hydrochloride) [Example 19, 4-((5-Fluoropyridin-2-yl)methoxy)-1-(7-methyl-2,3,5,6,7,11c-hexahydro-1H-indolizino[7,8-b]indol-9-yl)pyridin-2(1H)-one Dihydrochloride] | 240 to 243 °C | 
Cc1ccc(COc2ccn(-c3ccc4c5c(n(C)c4c3)CCN3CCCC53)c(=O)c2)cn1 (centres unmarked) (as salt: hydrochloride) [Example 20, 1-(7-Methyl-2,3,5,6,7,11c-hexahydro-1H-indolizino[7,8-b]indol-9-yl)-4-((6-methylpyridin-3-yl)methoxy)pyridin-2(1H)-one Dihydrochloride] | 280 to 282 °C | 
Cc1ccc(COc2ccn(-c3ccc4c5c(n(C)c4c3)CC3CCCCN3C5)c(=O)c2)cn1 (centres unmarked) (as salt: hydrochloride) [Example 33, 1-(5-Methyl-5,6,6a,7,8,9,10,12-octahydroindolo[2,3-b]quinolizin-3-yl)-4-((6-methylpyridin-3-yl)methoxy)pyridin-2(1H)-one Dihydrochloride] | 270 to 272 °C | 
Cn1c2c(c3ccc(-n4ccc(OCc5ccc(F)cn5)cc4=O)cc31)CCN1CCCC21 (centres unmarked) (as salt: hydrochloride) [Example 43, 4-((5-Fluoropyridin-2-yl)methoxy)-1-(11-methyl-2,3,5,6,11,11b-hexahydro-1H-indolizino[8,7-b]indol-9-yl)pyridin-2(1H)-one Dihydrochloride] | 290 to 293 °C | 
